Data as given in patent US20250353891A1 (MEDIMMUNE LIMITED, priority 2022, published 2025).
Starred links: 1 amine or outer side, 2 acyl side, 3 side chain; linkers in the order of their positions; H or OH if unused. Non-standard residues stand in square brackets, D forms with d. Residues, ends and D or L forms follow the SMILES beside them. Groups on a side chain read outwards from the residue. *: point of attachment. C18 diacid = O=C(O)CCCCCCCCCCCCCCCCC(=O)*; γGlu = O=C(O)[C@H](CCC(=O)[*:2])N[*:1]; αMeF = C[C@](N)(Cc1ccccc1)C(=O)O; AEEA = NCCOCCOCC(=O)O; Aib = CC(C)(N)C(=O)O

Columns and labels:
[1] = biological target: human glucagon receptor (hGCGR) (Homo sapiens, UniProt P47871); assay: cAMP production (HTRF) in CHO cells expressing hGCGR; format: cell-based; set-up: expressed in transfected cells; details: Table 6, peptides modified at position 17; cAMP in CHO hGCGR cells; geometric mean; read-out: hGluc-R EC50
Sequence of human glucagon receptor (hGCGR) (P47871 26-477): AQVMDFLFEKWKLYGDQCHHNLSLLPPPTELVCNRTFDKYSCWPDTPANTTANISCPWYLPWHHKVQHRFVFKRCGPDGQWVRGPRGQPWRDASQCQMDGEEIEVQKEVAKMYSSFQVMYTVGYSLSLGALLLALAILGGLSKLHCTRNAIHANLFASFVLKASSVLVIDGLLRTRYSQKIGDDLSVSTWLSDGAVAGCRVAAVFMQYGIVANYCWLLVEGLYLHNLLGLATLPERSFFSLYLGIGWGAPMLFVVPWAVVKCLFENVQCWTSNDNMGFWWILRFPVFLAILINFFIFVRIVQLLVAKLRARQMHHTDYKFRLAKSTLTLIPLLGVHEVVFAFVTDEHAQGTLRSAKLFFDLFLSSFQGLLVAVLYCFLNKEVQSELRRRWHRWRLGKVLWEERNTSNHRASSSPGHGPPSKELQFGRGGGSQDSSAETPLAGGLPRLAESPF
Outline: (§1)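 Cells were resuspended in assay buffer at batch-optimized density, typically 1×10^5 cells/mL for hGLP-1R and 2×10^5 cells/mL for hGCGR. After 30 min incubation at room temperature with compound, cAMP was measured by two-step HTRF. EC50 values came from 4-parameter logistic fits of % Delta F.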

[2] = biological target: human GLP-1 receptor (hGLP-1R) (Homo sapiens, UniProt P43220); assay: cAMP production (HTRF) in CHO cells expressing hGLP-1R; format: cell-based; set-up: expressed in transfected cells; details: for EC50: Table 6, peptides modified at position 17, cAMP in CHO hGLP-1R cells, geometric mean, read-out: hGLP-1R EC50; for % Relative Potency Ratio: Table 6, % GLP-1R activity relative to GLP-1 / % GlucR activity relative to glucagon
Sequence of human GLP-1 receptor (hGLP-1R) (P43220 24-463): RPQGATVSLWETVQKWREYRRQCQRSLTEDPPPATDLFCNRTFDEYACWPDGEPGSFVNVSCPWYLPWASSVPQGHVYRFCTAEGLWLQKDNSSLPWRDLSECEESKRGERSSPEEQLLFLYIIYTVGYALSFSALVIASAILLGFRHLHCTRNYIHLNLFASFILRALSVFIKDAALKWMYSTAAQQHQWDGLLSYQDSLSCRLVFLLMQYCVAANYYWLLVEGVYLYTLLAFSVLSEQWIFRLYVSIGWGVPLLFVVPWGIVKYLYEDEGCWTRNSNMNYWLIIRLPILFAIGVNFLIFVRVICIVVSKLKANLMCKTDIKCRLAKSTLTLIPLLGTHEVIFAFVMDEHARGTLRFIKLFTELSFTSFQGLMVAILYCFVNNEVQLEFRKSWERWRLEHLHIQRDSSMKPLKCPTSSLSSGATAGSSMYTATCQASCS
Outline: as §1

Compound	EC50 [1] [nM]	EC50 [2] [nM]	% Relative Potency Ratio [2]
CC(C)C[C@H](NC(=O)[C@H](Cc1c[nH]c2ccccc12)NC(=O)[C@H](CCCNC(=N)N)NC(=O)[C@@H](NC(=O)[C@H](Cc1ccccc1)NC(=O)[C@H](CC(=O)O)NC(=O)[C@H](CCC(N)=O)NC(=O)[C@H](C)NC(=O)[C@H](CCCNC(=N)N)NC(=O)[C@H](CCCCNC(=O)COCCOCCNC(=O)COCCOCCNC(=O)CC[C@H](NC(=O)CCCCCCCCCCCCCCCCC(=O)O)C(=O)O)NC(=O)[C@H](CO)NC(=O)[C@H](CC(=O)O)NC(=O)[C@H](CC(C)C)NC(=O)[C@](C)(Cc1ccccc1)NC(=O)[C@H](CCCCN)NC(=O)[C@H](CO)NC(=O)[C@@H](NC(=O)[C@H](CC(=O)O)NC(=O)[C@H](CO)NC(=O)[C@@H](NC(=O)[C@H](Cc1ccccc1)NC(=O)[C@@H](NC(=O)CNC(=O)[C@H](CCC(N)=O)NC(=O)C(C)(C)NC(=O)[C@@H](N)Cc1c[nH]cn1)[C@@H](C)O)[C@@H](C)O)C(C)C)C(C)C)C(=O)N[C@@H](C)C(=O)NC(C)(C)C(=O)N[C@H](C(=O)N[C@@H](CCC(=O)O)C(=O)O)[C@@H](C)O [Peptide 175] (H-H[Aib]QGTFTSDVSK[αMeF]LDSK([AEEA-AEEA-γGlu-C18 diacid])RAQDFVRWLA[Aib]TE-OH)	2.02	0.0684	58.4
CC(C)C[C@H](NC(=O)[C@H](Cc1c[nH]c2ccccc12)NC(=O)[C@H](CCCNC(=N)N)NC(=O)[C@@H](NC(=O)[C@H](Cc1ccccc1)NC(=O)[C@H](CC(=O)O)NC(=O)[C@H](CCC(N)=O)NC(=O)[C@H](C)NC(=O)[C@H](CCCNC(=N)N)NC(=O)[C@H](CCCCNC(=O)COCCOCCNC(=O)COCCOCCNC(=O)CC[C@H](NC(=O)CCCCCCCCCCCCCCCCC(=O)O)C(=O)O)NC(=O)[C@H](CO)NC(=O)[C@H](CC(=O)O)NC(=O)[C@H](CC(C)C)NC(=O)[C@](C)(Cc1ccccc1)NC(=O)[C@H](CCCCN)NC(=O)[C@H](CO)NC(=O)[C@@H](NC(=O)[C@H](CC(=O)O)NC(=O)[C@H](CO)NC(=O)[C@@H](NC(=O)[C@H](Cc1ccccc1)NC(=O)[C@@H](NC(=O)CNC(=O)[C@H](CCC(N)=O)NC(=O)C(C)(C)NC(=O)[C@@H](N)Cc1c[nH]cn1)[C@@H](C)O)[C@@H](C)O)C(C)C)C(C)C)C(=O)N[C@@H](CC(C)C)C(=O)NC(C)(C)C(=O)N[C@H](C(=O)N[C@@H](C)C(=O)O)[C@@H](C)O [Peptide 176] (H-H[Aib]QGTFTSDVSK[αMeF]LDSK([AEEA-AEEA-γGlu-C18 diacid])RAQDFVRWLL[Aib]TA-OH; N-terminus assumed)	0.48	0.0599	15.9
CC(C)C[C@H](NC(=O)[C@H](Cc1c[nH]c2ccccc12)NC(=O)[C@H](CCCNC(=N)N)NC(=O)[C@@H](NC(=O)[C@H](Cc1ccccc1)NC(=O)[C@H](CC(=O)O)NC(=O)[C@H](CCC(N)=O)NC(=O)[C@H](C)NC(=O)[C@H](CCCNC(=N)N)NC(=O)[C@H](CCCCNC(=O)COCCOCCNC(=O)COCCOCCNC(=O)CC[C@H](NC(=O)CCCCCCCCCCCCCCCCC(=O)O)C(=O)O)NC(=O)[C@H](CCCCN)NC(=O)[C@H](CC(=O)O)NC(=O)[C@H](CC(C)C)NC(=O)[C@](C)(Cc1ccccc1)NC(=O)[C@H](CCCCN)NC(=O)[C@H](CO)NC(=O)[C@@H](NC(=O)[C@H](CC(=O)O)NC(=O)[C@H](CO)NC(=O)[C@@H](NC(=O)[C@H](Cc1ccccc1)NC(=O)[C@@H](NC(=O)CNC(=O)[C@H](CCC(N)=O)NC(=O)C(C)(C)NC(=O)[C@@H](N)Cc1c[nH]cn1)[C@@H](C)O)[C@@H](C)O)C(C)C)C(C)C)C(=O)N[C@@H](CC(C)C)C(=O)NC(C)(C)C(=O)N[C@H](C(=O)N[C@@H](CCC(=O)O)C(=O)O)[C@@H](C)O [Peptide 178]	0.104	0.0518	4.0
CC(C)C[C@H](NC(=O)[C@H](CC(C)C)NC(=O)[C@H](Cc1c[nH]c2ccccc12)NC(=O)[C@H](CCCNC(=N)N)NC(=O)[C@@H](NC(=O)[C@H](Cc1ccccc1)NC(=O)[C@H](CC(=O)O)NC(=O)[C@H](CCC(N)=O)NC(=O)[C@H](C)NC(=O)[C@H](CCCNC(=N)N)NC(=O)[C@H](CCCCNC(=O)COCCOCCNC(=O)COCCOCCNC(=O)CC[C@H](NC(=O)CCCCCCCCCCCCCCCCC(=O)O)C(=O)O)NC(=O)[C@H](CO)NC(=O)[C@H](CC(=O)O)NC(=O)[C@H](CC(C)C)NC(=O)[C@](C)(Cc1ccccc1)NC(=O)[C@H](CCCCN)NC(=O)[C@H](CO)NC(=O)[C@@H](NC(=O)[C@H](CC(=O)O)NC(=O)[C@H](CO)NC(=O)[C@@H](NC(=O)[C@H](Cc1ccccc1)NC(=O)[C@@H](NC(=O)CNC(=O)[C@H](CCC(N)=O)NC(=O)C(C)(C)NC(=O)[C@@H](N)Cc1c[nH]cn1)[C@@H](C)O)[C@@H](C)O)C(C)C)C(C)C)C(=O)N[C@@H](CCC(=O)O)C(=O)N[C@@H](C)C(=O)NCC(=O)O [Peptide 179] (H-H[Aib]QGTFTSDVSK[αMeF]LDSK([AEEA-AEEA-γGlu-C18 diacid])RAQDFVRWLLEAG-OH; N-terminus assumed)	0.203	0.131	3.1
CC(C)C[C@H](NC(=O)[C@H](CC(C)C)NC(=O)[C@H](Cc1c[nH]c2ccccc12)NC(=O)[C@H](CCCNC(=N)N)NC(=O)[C@@H](NC(=O)[C@H](Cc1ccccc1)NC(=O)[C@H](CC(=O)O)NC(=O)[C@H](CCC(N)=O)NC(=O)[C@H](C)NC(=O)[C@H](CCCNC(=N)N)NC(=O)[C@H](CCCCNC(=O)COCCOCCNC(=O)COCCOCCNC(=O)CC[C@H](NC(=O)CCCCCCCCCCCCCCCCC(=O)O)C(=O)O)NC(=O)[C@H](CO)NC(=O)[C@H](CC(=O)O)NC(=O)[C@H](CC(C)C)NC(=O)[C@](C)(Cc1ccccc1)NC(=O)[C@H](CCCCN)NC(=O)[C@H](CO)NC(=O)[C@@H](NC(=O)[C@H](CC(=O)O)NC(=O)[C@H](CO)NC(=O)[C@@H](NC(=O)[C@H](Cc1ccccc1)NC(=O)[C@@H](NC(=O)CNC(=O)[C@H](CCC(N)=O)NC(=O)C(C)(C)NC(=O)[C@@H](N)Cc1c[nH]cn1)[C@@H](C)O)[C@@H](C)O)C(C)C)C(C)C)C(=O)N[C@@H](C)C(=O)NC(C)(C)C(=O)NCC(=O)O [Peptide 180] (H-H[Aib]QGTFTSDVSK[αMeF]LDSK([AEEA-AEEA-γGlu-C18 diacid])RAQDFVRWLLA[Aib]G-OH; N-terminus assumed)	0.0717	0.0244	5.8
CC(C)C[C@H](NC(=O)[C@H](Cc1c[nH]c2ccccc12)NC(=O)[C@H](CCCNC(=N)N)NC(=O)[C@@H](NC(=O)[C@H](Cc1ccccc1)NC(=O)[C@H](CC(=O)O)NC(=O)[C@H](CCC(N)=O)NC(=O)[C@H](C)NC(=O)[C@H](CCCNC(=N)N)NC(=O)[C@H](CCCCNC(=O)COCCOCCNC(=O)COCCOCCNC(=O)CCCCCCCCCCCCCCCCC(=O)O)NC(=O)[C@H](CO)NC(=O)[C@H](CC(=O)O)NC(=O)[C@H](CC(C)C)NC(=O)[C@](C)(Cc1ccccc1)NC(=O)[C@H](CCCCN)NC(=O)[C@H](CO)NC(=O)[C@@H](NC(=O)[C@H](CC(=O)O)NC(=O)[C@H](CO)NC(=O)[C@@H](NC(=O)[C@H](Cc1ccccc1)NC(=O)[C@@H](NC(=O)CNC(=O)[C@H](CCC(N)=O)NC(=O)C(C)(C)NC(=O)[C@@H](N)Cc1c[nH]cn1)[C@@H](C)O)[C@@H](C)O)C(C)C)C(C)C)C(=O)N[C@@H](CC(C)C)C(=O)N[C@@H](CCC(=O)O)C(=O)NC(C)(C)C(=O)NCC(=O)O [Peptide 181] (H-H[Aib]QGTFTSDVSK[αMeF]LDSK([AEEA-AEEA-C18 diacid])RAQDFVRWLLE[Aib]G-OH; N-terminus assumed)	0.0334	0.056	1.2
CC(C)C[C@H](NC(=O)[C@H](Cc1c[nH]c2ccccc12)NC(=O)[C@H](CCCNC(=N)N)NC(=O)[C@@H](NC(=O)[C@H](Cc1ccccc1)NC(=O)[C@H](CC(=O)O)NC(=O)[C@H](CCC(N)=O)NC(=O)[C@H](C)NC(=O)[C@H](CCCNC(=N)N)NC(=O)[C@H](CCCCNC(=O)COCCOCCNC(=O)COCCOCCNC(=O)CC[C@H](NC(=O)CCCCCCCCCCCCCCCCC(=O)O)C(=O)O)NC(=O)[C@H](CCCCN)NC(=O)[C@H](CC(=O)O)NC(=O)[C@H](CC(C)C)NC(=O)[C@](C)(Cc1ccccc1)NC(=O)[C@H](CCCCN)NC(=O)[C@H](CO)NC(=O)[C@@H](NC(=O)[C@H](CC(=O)O)NC(=O)[C@H](CO)NC(=O)[C@@H](NC(=O)[C@H](Cc1ccccc1)NC(=O)[C@@H](NC(=O)CNC(=O)[C@H](CCC(N)=O)NC(=O)C(C)(C)NC(=O)[C@@H](N)Cc1c[nH]cn1)[C@@H](C)O)[C@@H](C)O)C(C)C)C(C)C)C(=O)N[C@@H](CC(C)C)C(=O)N[C@@H](CCC(=O)O)C(=O)NC(C)(C)C(=O)NCC(=O)O [Peptide 182] (H-H[Aib]QGTFTSDVSK[αMeF]LDKK([AEEA-AEEA-γGlu-C18 diacid])RAQDFVRWLLE[Aib]G-OH)	0.0226	0.0291	1.5
CC(C)C[C@H](NC(=O)[C@H](Cc1c[nH]c2ccccc12)NC(=O)[C@H](CCCNC(=N)N)NC(=O)[C@@H](NC(=O)[C@H](Cc1ccccc1)NC(=O)[C@H](CC(=O)O)NC(=O)[C@H](CCC(N)=O)NC(=O)[C@H](C)NC(=O)[C@H](CCCNC(=N)N)NC(=O)[C@H](CCCCNC(=O)COCCOCCNC(=O)COCCOCCNC(=O)CC[C@H](NC(=O)CCCCCCCCCCCCCCCCC(=O)O)C(=O)O)NC(=O)[C@H](CO)NC(=O)[C@H](CC(=O)O)NC(=O)[C@H](CC(C)C)NC(=O)[C@](C)(Cc1ccccc1)NC(=O)[C@H](CCCCN)NC(=O)[C@H](CO)NC(=O)[C@@H](NC(=O)[C@H](CC(=O)O)NC(=O)[C@H](CO)NC(=O)[C@@H](NC(=O)[C@H](Cc1ccccc1)NC(=O)[C@@H](NC(=O)CNC(=O)[C@H](CCC(N)=O)NC(=O)C(C)(C)NC(=O)[C@@H](N)Cc1c[nH]cn1)[C@@H](C)O)[C@@H](C)O)C(C)C)C(C)C)C(=O)N[C@@H](CC(C)C)C(=O)N[C@@H](CCC(=O)O)C(=O)NC(C)(C)C(=O)N[C@@H](CCCCN)C(=O)O [Peptide 183]	0.0814	0.0237	6.8
